Earlier results as cited in US20240181106A1, “WATER-SOLUBLE PHOTOSENSITIVE COMPOSITION OF PHOTODYNAMIC ENVIRONMENTAL DISINFECTION AND METHOD OF ENVIRONMENTAL DISINFECTION BY USING THE SAME” (NATIONAL CHENG KUNG UNIVERSITY, priority 2022, published 2024).

Structure (SMILES): CN(C)c1ccc2nc3ccc(=[N+](C)C)cc-3sc2c1 [methylene blue]
- safe single dose (60 kg-weight adult, every 4 hours): 120 mg
- daily dose not to be exceeded (human): ≤ 7 mg/kg daily
- maximum safe dose administered to a human (human): 2 mg/kg/single dose
